Measurements from PMC10315211 (Molecular microbiology, 2023).

Molecular target: CpdAEc (N-His-CpdAEc) (Escherichia coli, UniProt P0AEW4)
Assay type: biochemical
Conditions: 50 mM Tris-HCl pH 8.0, 0.14 M NaCl, 2 mM MgCl2, room temperature

CpdAEc (N-His-CpdAEc), sequence (P0AEW4 whole entry): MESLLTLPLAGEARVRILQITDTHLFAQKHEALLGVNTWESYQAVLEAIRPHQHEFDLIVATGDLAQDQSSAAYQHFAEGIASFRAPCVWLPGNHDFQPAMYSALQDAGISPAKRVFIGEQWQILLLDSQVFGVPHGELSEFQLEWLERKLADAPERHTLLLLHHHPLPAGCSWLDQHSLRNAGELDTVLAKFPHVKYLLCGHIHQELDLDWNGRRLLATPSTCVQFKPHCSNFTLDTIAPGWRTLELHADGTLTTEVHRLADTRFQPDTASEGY

## C[N+](C)(C)CCOP(=O)([O-])OC[C@H](O)CO [glycerophosphocholine]
  choline oxidase / HRP coupled Amplex Red fluorometric assay: both Rv0805 and CpdAEc produced choline and Gly3P from glycerophosphocholine (GPC)
